Experimental data published in BindingDB's records for doi:10.1021/jm9508853 (University of Maryland, 2021).
One block for each compound: values may come before it.

Tests used:
[1] = target: T1, B-cell lymphoma 6 protein (Homo sapiens, UniProt P41182); test: Inhibition of human BCL6 BTP domain measured by TR-FRET assay
[2] = target: T1, B-cell lymphoma 6 protein; test: Binding affinity to human BCL6 BTP domain assessed as dissociation constant by SPR assay
[3] = target: T1, B-cell lymphoma 6 protein; test: Inhibition of human BCL6 BTP domain measured by fluorescence polarization assay
[4] = target: Casein kinase II subunit alpha 3 (Homo sapiens, UniProt Q8NEV1); test: Inhibition of CK2 (unknown origin)
[5] = target: T1, B-cell lymphoma 6 protein; test: Reversible inhibition of human BCL6 BTP domain measured by TR-FRET assay
[6] = target: T1, B-cell lymphoma 6 protein; test: Inhibition of human BCL6 BTP domain measured by cell reporter assay
[7] = target: T1, B-cell lymphoma 6 protein; test: Inhibition of human BCL6 BTP domain by ELISA assay
[8] = target: T1, B-cell lymphoma 6 protein; test: Inhibition of human BCL6 BTP domain
[9] = target: T1, B-cell lymphoma 6 protein; test: Irreversible inhibition of human BCL6 BTP domain measured by TR-FRET assay

Chain of Casein kinase II subunit alpha 3 (Q8NEV1 whole entry, the tested form may be a part): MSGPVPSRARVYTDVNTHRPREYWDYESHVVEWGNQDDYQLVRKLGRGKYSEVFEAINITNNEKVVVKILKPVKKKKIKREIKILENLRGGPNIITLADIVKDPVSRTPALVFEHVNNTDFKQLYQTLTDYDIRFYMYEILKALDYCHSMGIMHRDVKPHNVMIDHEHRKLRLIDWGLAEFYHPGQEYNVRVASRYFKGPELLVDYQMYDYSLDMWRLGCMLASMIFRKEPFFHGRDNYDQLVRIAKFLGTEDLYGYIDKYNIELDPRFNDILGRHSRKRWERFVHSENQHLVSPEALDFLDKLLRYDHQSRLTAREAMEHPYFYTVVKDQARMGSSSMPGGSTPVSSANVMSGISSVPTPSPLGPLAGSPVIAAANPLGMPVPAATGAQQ

Compound: N#Cc1cnn2c(Nc3ccc4c(c3)CCC(=O)N4)cc(N3CCC[C@H]3CC(=O)O)nc12
IC50 [1]: 0.35 µM
Kd [2]: 1.1 µM

Compound: Cn1c(=O)n(C)c2cc(Nc3ncccc3C#N)ccc21
IC50 [3]: 86 µM

Compound: Cn1c(=O)n(CCC(C)(C)O)c2cc(Nc3ccnc(Cl)c3C#N)ccc21
IC50 [1]: 0.86 µM

Compound: N#Cc1cnn2c3cc(nc12)N1C[C@H](C[C@H]1CO)OC/C=C/COc1cc(cc2c1NC(=O)CC2)N3
IC50 [6]: 2 µM
IC50 [1]: 0.0029 µM
IC50 [4]: 0.64 µM
Kd [2]: 0.0065 µM

Compound: N#Cc1c(NCc2ccccc2)ccnc1Cl
IC50 [3]: 120 µM

Compound: N#Cc1c(NCC2CC2)ccnc1Cl
IC50 [3]: 207 µM

Compound: CSCC[C@H](N)C(=O)N[C@@H](CO)C(=O)N[C@@H](Cc1c[nH]c2ccccc12)C(=O)N[C@@H](CCCNC(=N)N)C(=O)N[C@H](C(=O)N1CCC[C@H]1C(=O)O)C(C)C
IC50 [7]: 620 µM

Compound: CC(=O)N[C@@H](Cc1c[nH]c2ccccc12)C(=O)N[C@@H](CCCNC(=N)N)C(=O)N[C@H](C(=O)N1CCC[C@H]1C(=O)O)C(C)C
IC50 [7]: 170 µM

Compound: CC(C)[C@H](NC(=O)[C@H](CCCNC(=N)N)NC(=O)[C@H](Cc1c[nH]c2ccccc12)NC(=O)[C@@H](N)CO)C(=O)N1CCC[C@H]1C(=O)O
IC50 [7]: 1500 µM

Compound: COc1cccc(CN2C(=O)CCc3cc4cc(c32)OC/C=C/CO[C@H]2C[C@@H](CO)N(C2)c2cc(n3ncc(Cl)c3n2)N4)c1
IC50 [4]: > 10 µM

Compound: Cc1ccccc1CN1C(=O)CCc2cc3cc(c21)OC/C=C/CO[C@H]1C[C@@H](CO)N(C1)c1cc(n2ncc(Cl)c2n1)N3
IC50 [4]: > 10 µM

Compound: N#Cc1cnn2c(Nc3ccc4c(c3)CCC(=O)N4)cc(N3CCC[C@H]3CO)nc12
IC50 [1]: 0.37 µM
Kd [2]: 0.5 µM

Compound: CNC(=O)COc1cc2cc(Nc3nc(NCc4cccc(S(=O)(=O)F)c4)ncc3Cl)cc(OC)c2n(C)c1=O
IC50 [9]: 0.152 µM

Compound: O=C1Cc2cc(Nc3nc(NCc4cccc(S(=O)(=O)F)c4)ncc3Cl)ccc2N1
IC50 [9]: 0.251 µM

Compound: Cn1c(=O)n(C)c2cc(Nc3cc(SCc4ccccc4)ncn3)ccc21
IC50 [3]: 70 µM

Now from value to compound:

IC50 [1]: 830 µM
Compound: Nc1ncnc(Nc2ccccc2Cl)n1

IC50 [4]: > 10 µM
Compound: O=C1CCc2cc3cc(c2N1Cc1ccccc1)OC/C=C/CO[C@H]1C[C@@H](CO)N(C1)c1cc(n2ncc(Cl)c2n1)N3

IC50 [5]: 0.368 µM
Compound: CNC(=O)COc1cc2cc(Nc3nc(NCc4cccc(S(C)(=O)=O)c4)ncc3Cl)cc(OC)c2n(C)c1=O

Kd [2]: 1200 µM
Compound: Nc1ncnc(Nc2ccccc2)n1 [Amanozine]

Kd [2]: 88 µM
Compound: CN(c1ncccc1CNc1nc(Nc2ccc3c(c2)CC(=O)N3)ncc1C(F)(F)F)S(C)(=O)=O

Kd [2]: 68 µM
Compound: Nc1ncc(Cl)c(Nc2ccccc2)n1

IC50 [8]: 0.012 µM
Compound: CNC(=O)COc1cc2cc(Nc3nc(-n4nc(C)cc4C)ncc3Cl)ccc2n(C)c1=O

IC50 [8]: > 20 µM
Compound: Cc1cc(C)n(-c2ncc(Cl)c(Nc3ccc(Cl)cc3)n2)n1

Kd [2]: 690 µM
Compound: CCNc1cc(-c2cccnc2)nc2ccnn12
